From patent US20250129069A1, “TRIAZOLO WRN INHIBITORS” (Nimbus Wadjet, Inc., priority 2023, published 2025)
Where two headings read alike, the source gives them in different places.

Assays:
[1] = molecular target: human Werner helicase (WRN, amino acids 517-1235 with L1074F point mutation) (Homo sapiens (Human), UniProt Q14191, L1074F); experiment: WRN (BV08) ADP-Glo assay; format: biochemical; conditions: human WRN (aa 517-1235, L1074F), read-out: ADP-Glo_hWRN_IC50
Outline: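 Untagged WRN 517-1235 (L1074F), Sf9/baculovirus-expressed, 0.15 nM, preincubated 15 min with compound, then 5 μM ATP and 0.1 nM annealed DNA duplex added; 60 min at 25 °C in Bicine pH 7.5, 1 mM MgCl2, 1% DMSO. ADP-Glo luminescence; % inhibition vs DMSO and 20 μM NSC-617145 controls, four-parameter IC50 fit.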

[2] = system: p21 induction in HCT 116 cells; experiment: p21 induction in cells (In-Cell Western, p21/GAPDH ratio); format: cell-based; conditions: 24 h compound incubation, read-out: p21_EC50
Outline: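 HCT 116 cells treated 24 h at 37° C with 11-point, 2-fold dilutions typically from 10 μM, in duplicate. Fixed cells co-stained for p21 (800 nm) and GAPDH (700 nm) by In-Cell Western. p21/GAPDH ratio normalised between DMSO and reference WRN inhibitor controls, and EC50 obtained by nonlinear regression.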

Chain of human Werner helicase (WRN, amino acids 517-1235 with L1074F point mutation) (Q14191 other isoform, or with tags, fused parts or gaps L1074F (already in the parent)): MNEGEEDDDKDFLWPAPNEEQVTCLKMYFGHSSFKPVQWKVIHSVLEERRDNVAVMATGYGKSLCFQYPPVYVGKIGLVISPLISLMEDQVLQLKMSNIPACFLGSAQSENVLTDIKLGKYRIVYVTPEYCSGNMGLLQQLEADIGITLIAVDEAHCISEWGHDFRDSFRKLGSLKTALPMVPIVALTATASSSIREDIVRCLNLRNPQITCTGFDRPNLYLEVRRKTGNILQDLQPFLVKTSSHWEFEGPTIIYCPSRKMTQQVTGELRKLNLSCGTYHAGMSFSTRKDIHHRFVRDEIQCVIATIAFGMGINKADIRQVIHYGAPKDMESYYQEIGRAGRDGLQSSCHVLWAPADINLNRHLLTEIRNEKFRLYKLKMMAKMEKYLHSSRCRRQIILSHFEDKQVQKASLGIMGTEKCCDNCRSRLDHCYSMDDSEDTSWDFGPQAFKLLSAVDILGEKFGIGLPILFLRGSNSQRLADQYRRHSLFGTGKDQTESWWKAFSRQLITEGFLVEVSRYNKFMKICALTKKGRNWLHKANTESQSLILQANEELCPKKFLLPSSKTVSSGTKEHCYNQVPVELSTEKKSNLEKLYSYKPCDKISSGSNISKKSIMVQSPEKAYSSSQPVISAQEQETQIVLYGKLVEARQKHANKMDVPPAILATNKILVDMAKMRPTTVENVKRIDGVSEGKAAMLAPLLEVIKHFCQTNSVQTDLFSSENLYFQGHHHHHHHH

Row | Compound | IC50 [1] | EC50 ([2]; Homo sapiens) | EC50 [2]
1 | CCc1c(N2CCN(C(=O)c3ncnc(C)c3O)[C@H]3CC[C@@H]32)c(=O)c2nn(-c3ccn(C)n3)nc2n1CC(=O)NC12CC(C(C)C)(C1)C2 [Compound I-187, 2-{5-ethyl-6-[(1S,6S)-5-(5-hydroxy-6-methylpyrimidine-4-carbonyl)-2,5-diazabicyclo[4.2.0]octan-2-yl]-2-(1-methyl-1H-pyrazol-3-yl)-7-oxo-2H,4H,7H-[1,2,3]triazolo[4,5-b]pyridin-4-yl}-N-[3-(propan-2-yl)bicyclo[1.1.1]pentan-1-yl]acetamide] | 0.005 to 0.05 µM | ≤ 0.5 µM | –
2 | CCc1c(N2CCN(C(=O)c3ncnc(C)c3O)[C@H]3CC[C@@H]32)c(=O)c2nn(-c3ccnc(OC)c3)nc2n1CC(=O)NC12CC(C3CCC3)(C1)C2 [Compound I-28, N-(3-cyclobutylbicyclo[1.1.1]pentan-1-yl)-2-(5-ethyl-6-((1S,6S)-5-(5-hydroxy-6-methylpyrimidine-4-carbonyl)-2,5-diazabicyclo[4.2.0]octan-2-yl)-2-(2-methoxypyridin-4-yl)-7-oxo-2,7-dihydro-4H-[1,2,3]triazolo[4,5-b]pyridin-4-yl)acetamide] | ≤ 0.005 µM | ≤ 0.5 µM | –
3 | CCc1c(N2CCN(C(=O)c3ncnc(C)c3O)[C@H]3CC[C@@H]32)c(=O)c2nn(C3=CCOCC3)nc2n1CC(=O)Nc1ccc(C(F)(F)F)cc1Cl [Compound I-20, N-(2-chloro-4-(trifluoromethyl)phenyl)-2-(2-(3,6-dihydro-2H-pyran-4-yl)-5-ethyl-6-((1S,6S)-5-(5-hydroxy-6-methylpyrimidine-4-carbonyl)-2,5-diazabicyclo[4.2.0]octan-2-yl)-7-oxo-2,7-dihydro-4H-[1,2,3]triazolo[4,5-b]pyridin-4-yl)acetamide] | ≤ 0.005 µM | ≤ 0.5 µM | –
4 | CCc1c(N2CCN(C(=O)c3ncnc(C)c3O)[C@H]3CC[C@@H]32)c(=O)c2nn(C3=CCOCC3)nc2n1CC(=O)NC12CC(C(C)C)(C1)C2 [Compound I-18, 2-(2-(3,6-dihydro-2H-pyran-4-yl)-5-ethyl-6-((1S,6S)-5-(5-hydroxy-6-methylpyrimidine-4-carbonyl)-2,5-diazabicyclo[4.2.0]octan-2-yl)-7-oxo-2,7-dihydro-4H-[1,2,3]triazolo[4,5-b]pyridin-4-yl)-N-(3-isopropylbicyclo[1.1.1]pentan-1-yl)acetamide] | 0.005 to 0.05 µM | ≤ 0.5 µM | –
5 | CCc1c(N2CCN(C(=O)c3c(OC)ncc(C)c3O)CC2)c(=O)c2nn(C3=CCOCC3)nc2n1CC(=O)NC12CC(C(C)C)(C1)C2 [Compound I-111, 2-[2-(3,6-dihydro-2H-pyran-4-yl)-5-ethyl-6-[4-(4-hydroxy-2-methoxy-5-methylpyridine-3-carbonyl)piperazin-1-yl]-7-oxo-2H,4H,7H-[1,2,3]triazolo[4,5-b]pyridin-4-yl]-N-[3-(propan-2-yl)bicyclo[1.1.1]pentan-1-yl]acetamide] | 0.005 to 0.05 µM | ≤ 0.5 µM | –
6 | CCc1c(N2CCN(C(=O)c3c(OC)ncc([C@@H]4CCOC4)c3O)CC2)c(=O)c2nn(-c3ccnc(OC)c3)nc2n1CC(=O)NC12CC(C(C)C)(C1)C2 (single isomer, unassigned) [Compound I-44] | 0.005 to 0.05 µM | ≤ 0.5 µM | –
7 | CCc1c(N2CCN(C(=O)c3cccc4c3OCCN4C)[C@H]3CC[C@@H]32)c(=O)c2nn(C3=CCOCC3)nc2n1CC(=O)NC12CC(C3CC3)(C1)C2 [Compound I-205, N-{3-cyclopropylbicyclo[1.1.1]pentan-1-yl}-2-[2-(3,6-dihydro-2H-pyran-4-yl)-5-ethyl-6-[(1S,6S)-5-(4-methyl-3,4-dihydro-2H-1,4-benzoxazine-8-carbonyl)-2,5-diazabicyclo[4.2.0]octan-2-yl]-7-oxo-2H,4H,7H-[1,2,3]triazolo[4,5-b]pyridin-4-yl]acetamide] | 0.005 to 0.05 µM | 0.5 to 2 µM | –
8 | CCc1c(N2CCN(C(=O)c3ncc4c(c3O)CCO4)CC2)c(=O)c2nn(-c3ccnc(OC)c3)nc2n1CC(=O)Nc1ccc(C(F)(F)F)cc1Cl [Compound I-152, N-[2-chloro-4-(trifluoromethyl)phenyl]-2-[5-ethyl-6-(4-{4-hydroxy-2H,3H-furo[2,3-c]pyridine-5-carbonyl}piperazin-1-yl)-2-(2-methoxypyridin-4-yl)-7-oxo-2H,4H,7H-[1,2,3]triazolo[4,5-b]pyridin-4-yl]acetamide] | ≤ 0.005 µM | ≤ 0.5 µM | –
9 | CCc1c(N2CCN(C(=O)c3c(OC)ncc(C)c3O)[C@H]3CC[C@@H]32)c(=O)c2nn(-c3ccnc(C)c3)nc2n1CC(=O)NC12CC(C3CC3)(C1)C2 [Compound I-74, N-{3-cyclopropylbicyclo[1.1.1]pentan-1-yl}-2-{5-ethyl-6-[(1S,6S)-5-(4-hydroxy-2-methoxy-5-methylpyridine-3-carbonyl)-2,5-diazabicyclo[4.2.0]octan-2-yl]-2-(2-methylpyridin-4-yl)-7-oxo-2H,4H,7H-[1,2,3]triazolo[4,5-b]pyridin-4-yl}acetamide] | 0.005 to 0.05 µM | ≤ 0.5 µM | –
10 | CCc1c(N2CCN(C(=O)c3c(O)cccc3OC(F)(F)F)CC2)c(=O)c2nn(-c3ccnc(OC)c3)nc2n1CC(=O)NC12CC(C3CC3)(C1)C2 [Compound I-136, N-{3-cyclopropylbicyclo[1.1.1]pentan-1-yl}-2-(5-ethyl-6-{4-[2-hydroxy-6-(trifluoromethoxy)benzoyl]piperazin-1-yl}-2-(2-methoxypyridin-4-yl)-7-oxo-2H,4H,7H-[1,2,3]triazolo[4,5-b]pyridin-4-yl)acetamide] | 0.005 to 0.05 µM | 2 to 5 µM | –
11 | CCc1c(N2CCN(C(=O)c3ccc4cccc(O)c4n3)[C@H]3CC[C@@H]32)c(=O)c2nn(C3=CCOCC3)nc2n1CC(=O)NC12CC(C(C)C)(C1)C2 [Compound I-158, 2-[2-(3,6-dihydro-2H-pyran-4-yl)-5-ethyl-6-[(1S,6S)-5-(8-hydroxyquinoline-2-carbonyl)-2,5-diazabicyclo[4.2.0]octan-2-yl]-7-oxo-2H,4H,7H-[1,2,3]triazolo[4,5-b]pyridin-4-yl]-N-[3-(propan-2-yl)bicyclo[1.1.1]pentan-1-yl]acetamide] | 0.005 to 0.05 µM | ≤ 0.5 µM | –
12 | CCc1c(N2CCN(C(=O)c3ncnc(C)c3O)CC2)c(=O)c2nn(-c3ccnc(OC)c3)nc2n1CC(=O)Nc1ccc(C(F)(F)F)cc1Cl [Compound I-1, N-(2-chloro-4-(trifluoromethyl)phenyl)-2-(5-ethyl-6-(4-(5-hydroxy-6-methylpyrimidine-4-carbonyl)piperazin-1-yl)-2-(2-methoxypyridin-4-yl)-7-oxo-2,7-dihydro-4H-[1,2,3]triazolo[4,5-b]pyridin-4-yl)acetamide] | 0.005 to 0.05 µM | – | ≤ 0.5 µM
13 | CCc1c(N2CCN(C(=O)c3ncnc(C)c3O)[C@H]3CC[C@@H]32)c(=O)c2nn(C3=CCO[C@H](C)C3)nc2n1CC(=O)NC12CC(C3CC3)(C1)C2 (single isomer, unassigned) [Compound I-180] | 0.005 to 0.05 µM | ≤ 0.5 µM | –
14 | CCc1c(N2CCN(C(=O)c3c(OC)nc(C(F)F)c(C)c3O)[C@H]3CC[C@@H]32)c(=O)c2nn(C3=CCOCC3)nc2n1CC(=O)NC12CC(C3CC3)(C1)C2 [Compound I-190, N-{3-cyclopropylbicyclo[1.1.1]pentan-1-yl}-2-{6-[(1S,6S)-5-[6-(difluoromethyl)-4-hydroxy-2-methoxy-5-methylpyridine-3-carbonyl]-2,5-diazabicyclo[4.2.0]octan-2-yl]-2-(3,6-dihydro-2H-pyran-4-yl)-5-ethyl-7-oxo-2H,4H,7H-[1,2,3]triazolo[4,5-b]pyridin-4-yl}acetamide] | 0.005 to 0.05 µM | ≤ 0.5 µM | –
15 | CCc1c(N2CCN(C(=O)c3c(OC)ncc(C4CCOC4)c3O)CC2)c(=O)c2nn(-c3ccnc(OC)c3)nc2n1CC(=O)NC12CC(C(C)C)(C1)C2 (stereo not drawn) [Compound I-75, 2-(5-ethyl-6-{4-[4-hydroxy-2-methoxy-5-(oxolan-3-yl)pyridine-3-carbonyl]piperazin-1-yl}-2-(2-methoxypyridin-4-yl)-7-oxo-2H,4H,7H-[1,2,3]triazolo[4,5-b]pyridin-4-yl)-N-[3-(propan-2-yl)bicyclo[1.1.1]pentan-1-yl]acetamide] | 0.005 to 0.05 µM | 0.5 to 2 µM | –
16 | CCc1c(N2CCN(C(=O)c3c(OC)ncc(C)c3O)CC2)c(=O)c2nn(-c3ccnc(OC)c3)nc2n1CC(=O)NC1CC2(CCC2)C1 [Compound I-125, 2-{5-ethyl-6-[4-(4-hydroxy-2-methoxy-5-methylpyridine-3-carbonyl)piperazin-1-yl]-2-(2-methoxypyridin-4-yl)-7-oxo-2H,4H,7H-[1,2,3]triazolo[4,5-b]pyridin-4-yl}-N-{spiro[3.3]heptan-2-yl}acetamide] | 0.005 to 0.05 µM | 0.5 to 2 µM | –
17 | CCc1c(N2CCN(C(=O)c3c(O)ccc4ncoc34)CC2)c(=O)c2nn(C3CC3)nc2n1CC(=O)Nc1ccc(C(F)(F)F)cc1Cl [Compound I-133, N-[2-chloro-4-(trifluoromethyl)phenyl]-2-{2-cyclopropyl-5-ethyl-6-[4-(6-hydroxy-1,3-benzoxazole-7-carbonyl)piperazin-1-yl]-7-oxo-2H,4H,7H-[1,2,3]triazolo[4,5-b]pyridin-4-yl}acetamide] | 0.005 to 0.05 µM | ≤ 0.5 µM | –
18 | CCc1c(N2CCN(C(=O)c3ncnc(C)c3O)[C@H]3CC[C@@H]32)c(=O)c2nn(C3=CCO[C@H](C)C3)nc2n1CC(=O)NC12CC(C3CC3)(C1)C2 (single isomer, unassigned) [Compound I-181] | 0.005 to 0.05 µM | – | ≤ 0.5 µM
